For orientation: Kd means the free concentration of one partner at which half of the binding sites on the other are occupied at equilibrium, for simple one-to-one binding.

Each structure is given as a SMILES string.

1 molecule from paper PMC8199331, “Baicalein Ameliorates Streptococcus suis-Induced Infection In Vitro and In Vivo” (International Journal of Molecular Sciences, 2021) can be followed below.

This test addresses SLY (suilysin) (Streptococcus suis, UniProt Q55996). As to the kind of experiment: biochemical.

Chain of SLY (suilysin) (Q55996 28-497 limits assumed): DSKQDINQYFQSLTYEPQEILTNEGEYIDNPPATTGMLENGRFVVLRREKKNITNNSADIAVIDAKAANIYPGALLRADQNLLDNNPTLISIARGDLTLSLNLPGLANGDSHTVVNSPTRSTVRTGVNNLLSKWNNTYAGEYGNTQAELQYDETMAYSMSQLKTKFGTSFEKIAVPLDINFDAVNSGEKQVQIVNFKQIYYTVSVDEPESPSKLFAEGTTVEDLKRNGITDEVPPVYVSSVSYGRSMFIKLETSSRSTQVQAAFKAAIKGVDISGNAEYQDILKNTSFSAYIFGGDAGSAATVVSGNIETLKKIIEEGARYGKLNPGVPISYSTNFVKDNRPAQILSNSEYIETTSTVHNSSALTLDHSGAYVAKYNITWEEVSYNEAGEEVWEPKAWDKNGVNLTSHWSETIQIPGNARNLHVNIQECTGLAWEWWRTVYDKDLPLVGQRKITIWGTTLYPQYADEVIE

In turn, `O=c1cc(-c2ccccc2)oc2cc(O)c(O)c(O)c12` [Baicalein] displayed an equilibrium dissociation constant (Kd) of 0.865 µM.
